From article PMC10573977, “PNA6, a Lactosyl Analogue of Angiotensin-(1-7), Reverses Pain Induced in Murine Models of Inflammation, Chemotherapy-Induced Peripheral Neuropathy, and Metastatic Bone Disease” (International Journal of Molecular Sciences, 2023)
Residues, ends and D or L forms follow the SMILES beside them. *: point of attachment. X1 = OC[C@H]1O[C@@H](O[C@H]2[C@H](O)[C@@H](O)[C@H](*)O[C@@H]2CO)[C@H](O)[C@@H](O)[C@H]1O

Legend:
[1] = no reference given, cited from earlier work
Description: Our team has taken a novel approach to treating CIPN by taking advantage of our extensive experience with the G-protein linked Mas receptor and its agonist Ang-(1-7) to develop a platform of glycosylated Ang-(1-7) Mas receptor agonists including PNA5 and PNA6 that have outstanding brain penetration, enhanced bioavailability, decreased brain and peripheral inflammation, improved cerebral blood flow, and restored cognitive function in our preclinical vascular dementia and TBI animal models. Activation of Mas decreases ROS and brain inflammation, increases cerebral circulation, increases inductio ...

Mas receptor (MasR1) = settings: cited from earlier work
Description: The renin-angiotensin system (RAS) is a crucial player in regulating blood pressure and fluid homeostasis. The octapeptide, Angiotensin II, is the first significant end product. Angiotensin II binds strongly to G-coupled protein receptors (GPCRs), Angiotensin receptor type 1 (AT1), to produce vasoconstriction, sodium-water retention, inflammation, and fibrosis; and it binds weakly to Angiotensin II receptor type II (AT2), which produces vasodilation and angiogenesis. Angiotensin II is cleaved by Angiotensin-converting enzyme 2 (ACE2) to yield the heptapeptide, Ang-(1-7), which ha ...

[2] = biological target: Mas receptor (Homo sapiens) (UniProt P04201); settings: cited from earlier work
Mas receptor (Homo sapiens), sequence (P04201 whole entry): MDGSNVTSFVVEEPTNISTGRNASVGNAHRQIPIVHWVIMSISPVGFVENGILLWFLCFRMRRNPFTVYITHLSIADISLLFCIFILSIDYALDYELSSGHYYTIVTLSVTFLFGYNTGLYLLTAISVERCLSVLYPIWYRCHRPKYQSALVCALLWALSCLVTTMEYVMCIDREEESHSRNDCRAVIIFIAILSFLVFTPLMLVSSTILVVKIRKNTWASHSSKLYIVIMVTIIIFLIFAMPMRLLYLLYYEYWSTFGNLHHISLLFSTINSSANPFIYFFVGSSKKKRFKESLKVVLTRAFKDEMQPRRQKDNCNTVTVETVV

cancer-induced bone loss = assay: Radiographic analysis of femur bone integrity (bone score); assay type: in vivo, mouse
Description: Radiographic images of mice’s right femurs with established (CIBP) or sham were captured using a Faxitron machine. Bone loss was rated and evaluated using a bone score scale by a blinded observer where 0 = normal healthy bone; 1 = 1–3 lesions; 2 = 4 to 6 lesions; 3 = uni-cortical bone fractures; and 4 = bicortical bone fractures.
A digital Faxitron machine (Ultrafocus; Faxitron Bioptics, Tucson, AZ) was used to image the femurs of all mice (all groups in chronic studies) on days 0 (baseline), 7, 10, and 14 post-surgery to determine an average bone score and to exclude the data for any mice with full cortical fracture before day 14. Two blinded observers evaluated the images using a 5-point bone rating scale. Mice were anesthetized with 80 mg/kg ketamine to 12 mg/kg xylazine (in a 10 mL/kg volume) on day 0 before the surgery, D7, D10, and D14, and radiographs were acquired. The bone scoring scale was as follows: 0 = normal bone, 1 = 1–3 lesions with no fracture, 2 = 4+ lesions with no fracture, 3 = uni-cortical, full thickness fracture, and 4 = bicortical, full thickness fracture. Animals with bicortical, full fractures were euthanized as our IACUC protocol measures dictated.

in vivo = settings: male, Sprague Dawley, rat, serum, iv, 10 mg/kg
Description: To directly compare the in vivo lifetime and the ability of PNA6 to cross the blood–brain barrier (BBB), we devised a methodology that combines simultaneous blood sampling with microdialysis. PNA6 was administered via a single tail vein injection at a dosage of 10 mg/kg. Blood samples were collected at specific time intervals relative to the injection, including t = −10, 1, 5, 10, 20, 30, 40, 50, 60, 70, 80, and 90 min (with t = 0 corresponding to the moment of injection) as shown in Figure 4. The determination of serum and cerebrospinal fluid (CSF) concentrations of PNA6 involved the utilization of a calibration curve, which accounted for factors such as dilution and probe recovery specific to each experimental condition.
Animals for Dialysis: Male Sprague Dawley rats (275–325 g) were used for dialysis experiments in vivo.
The compounds were injected intravenously at 10 mg/kg via a single tail vein injection. Blood draws were taken at t = −10, 1, 5, 10, 20, 30, 40, 50, 60, 70, 80, and 90 min (where t = 0 corresponds to injection). Microdialysis fractions were time-locked with blood draws at 10 min increments such that blood draws correlated with the median time of the microdialysis fraction. For microdialysis, a dual syringe pump (PHD 2000, Harvard Apparatus, Holliston, MA, USA) was set to a flow rate of 0.5 mL/minute. […]

naïve mice = settings: 1 mg/kg i.p., 30, 60, 90 and 120 min after treatment, 10 rpm, cut-off 180 s, vs vehicle
Description: The rotarod test is widely used to evaluate the motor coordination of rodents, and we used it to determine the motor effect of PNA6 to prevent interpretation of behavior as a false positive. Four days before testing, naïve mice were trained to acclimate to the rotating rod (LE8505 Rota-Rod, Panlab Harvard Apparatus, Spain) at a constant speed of 10 rpm. A maximal cut-off time of 180 s was used to prevent exhaustion. On the day of testing, mice were baselined and re-evaluated at 30, 60, 90, and 120 min after treatment.

Angiotensin-(1-7), sequence (P01019 whole entry, looked up): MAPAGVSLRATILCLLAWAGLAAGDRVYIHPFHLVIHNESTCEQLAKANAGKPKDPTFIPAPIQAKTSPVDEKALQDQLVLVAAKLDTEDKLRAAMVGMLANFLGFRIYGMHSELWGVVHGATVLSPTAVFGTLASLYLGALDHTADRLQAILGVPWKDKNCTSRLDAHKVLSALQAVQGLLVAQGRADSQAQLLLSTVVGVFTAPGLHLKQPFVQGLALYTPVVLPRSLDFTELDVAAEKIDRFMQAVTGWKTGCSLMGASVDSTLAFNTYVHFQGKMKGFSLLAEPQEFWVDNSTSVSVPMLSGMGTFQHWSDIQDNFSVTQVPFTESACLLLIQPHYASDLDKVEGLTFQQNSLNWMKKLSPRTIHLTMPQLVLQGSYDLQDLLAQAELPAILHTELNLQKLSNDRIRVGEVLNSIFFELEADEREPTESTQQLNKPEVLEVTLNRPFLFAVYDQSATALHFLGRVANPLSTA

Compound: DRVYIHP [Ang-(1-7), Angiotensin-(1-7)]
- half-life in vivo ([1]; degraded rapidly by enzymes): short half-life in vivo
- selectivity for MasR1 over AT1 receptor (Mas receptor (MasR1); greater selectivity over AT1): 60 fold
- selectivity for MasR1 over AT2 receptor (Mas receptor (MasR1); greater selectivity over AT2): 100 fold

Compound: Angiotensin-(1-7) (from UniProt P01019)
- Kd [2]: 0.83 nM

Compound: CC[C@H](C)[C@H](NC(=O)[C@H](Cc1ccc(O)cc1)NC(=O)[C@@H](NC(=O)[C@H](CCCNC(=N)N)NC(=O)[C@@H](N)CC(=O)O)C(C)C)C(=O)N[C@@H](Cc1c[nH]cn1)C(=O)N[C@@H](CO[C@@H]1O[C@H](CO)[C@@H](O[C@@H]2O[C@H](CO)[C@H](O)[C@H](O)[C@H]2O)[C@H](O)[C@H]1O)C(N)=O [PNA6, Asp-Arg-Val-Tyr-Ile-His-Ser-(O-β-Lact)-amide] (H-DRVYIHS(X1)-NH2)
- penetration into the CNS ([1]; 'has been shown'): good penetration into the CNS
- cancer-induced bone loss vs vehicle (cancer-induced bone loss; cancer-bearing mice, chronic treatment, radiographs day 14, n = 10–12): did not exacerbate cancer-induced bone loss degradation
- bone remodeling in sham animals (cancer-induced bone loss; sustained saline or PNA6, day 14): had no change in bone remodeling
- Tmax (in vivo): 1 min
- half-life (in vivo): 22.1 min
- time spent on the rotating rod (naïve mice): neither increased nor decreased the time
